Results published in article PMC11125018 (Pharmaceuticals, 2024).
pEC50, pIC50: −log10 of the molar value. Several values for one entry are separate records, joined by “and”; a condition that tells them apart may be missing. Equal entries are not always repeated. Where two headings read alike, the source gives them in different places.

Tests used:
[1] = biological target: T1, CB1 receptor (Homo sapiens, UniProt P21554); experiment: PathHunter β-arrestin recruitment assay, agonist mode, CB1 expressing CHO-K1 cell line; assay type: cell-based; conditions: for agonist property: tested up to 5 µM; for EC50: EC50 (nM), agonist effect, 90 min incubation, parentheses = SD of three independent measurements; for Hill Slope: four-parameter log-logistic fit, three measurements; for Hill Slope / Maximum RE (%): parentheses = SD; for Maximum RE (%): 100% normalized to maximum (±)-CP 55,940 stimulation, 0% to vehicle; for classification as partial agonist of the CB1 cannabinoid receptor: relative to full agonist CP 55940
T1 construct: host or cells: CHO-K1
Protocol: (§1) For agonist and antagonist assays, PathHunter® CHO-K1 CNR1 (Eurofins DiscoverX, Fremont, CA, USA, Catalog number: 93-0959C2) β-Arrestin cells were expanded from freezer stocks according to standard procedures provided by Eurofins. The cell line manual was followed for cell growth (including cell culture media and supplementation, the handling and preparation of cells, etc.), test procedure, and signal detection. Cells were seeded in a total volume of 20 µL (5000 cells) into white-walled, 384-well microplates and incubated at 37 °C overnight prior to testing. After preparing stock acetonitrile solution at 1 mg/mL concentration of ligand, compound intermediate concentrations were achieved by a 10-point series of 3-fold compound serial dilutions in a compound dilution buffer in a separate dilution plate.
For the agonist assay, the concentration of each dilution was prepared at 5X of the final screening concentration. An amount of 5 µL of samples was added to cells (highest final concentration = 5 µM, maximum acetonitrile = 0.2 v/v%) and incubated at 37 °C for 90 min (5% CO2). To generate the assay signal, 12.5 µL of working detection solution was added to the cells, which were then left to incubate for an hour at room temperature in the dark. The signal detection was carried out using a PerkinElmer Envision instrument to measure chemiluminescence.

[2] = biological target: T1, CB1 receptor; experiment: cell-based; assay type: cell-based; conditions: for IC50: IC50 (nM); for Hill Slope / Maximum RE (%): antagonist mode, parentheses = SD; for Hill Slope: four-parameter log-logistic fit, three measurements; for Maximum RE (%): 100% normalized to maximum AM-281, 0% to vehicle
Protocol: as §1
For antagonist determination, cells were pre-incubated with THCV isomers, followed by agonist challenge at the EC80 concentration. Each THCV dilution was prepared at a 10X concentration relative to the intended final concentrations for screening. An amount of 2.5 µL of these samples were introduced into the cells, achieving a maximum final concentration of 5 µM for THCV and ~0.2 v/v% for acetonitrile. The assay plate was incubated at 37 °C for 30 min in an atmosphere containing 5% CO2. […] Cells were incubated for 90 min at 37 °C and 5% CO2. To generate the assay signal, 12.5 µL of working detection solution was added to the cells, which were then left to incubate for an hour at room temperature in the dark. The signal detection was carried out using a PerkinElmer Envision (Waltham, MA, USA) instrument to measure chemiluminescence.

[3] = system: CB1; conditions: cAMP assay, cited from earlier work; for pEC50: read-out: agonist EC50
[4] = system: CB2 receptor; conditions: in vitro studies; cited from earlier work

T1 sequence (P21554 whole entry): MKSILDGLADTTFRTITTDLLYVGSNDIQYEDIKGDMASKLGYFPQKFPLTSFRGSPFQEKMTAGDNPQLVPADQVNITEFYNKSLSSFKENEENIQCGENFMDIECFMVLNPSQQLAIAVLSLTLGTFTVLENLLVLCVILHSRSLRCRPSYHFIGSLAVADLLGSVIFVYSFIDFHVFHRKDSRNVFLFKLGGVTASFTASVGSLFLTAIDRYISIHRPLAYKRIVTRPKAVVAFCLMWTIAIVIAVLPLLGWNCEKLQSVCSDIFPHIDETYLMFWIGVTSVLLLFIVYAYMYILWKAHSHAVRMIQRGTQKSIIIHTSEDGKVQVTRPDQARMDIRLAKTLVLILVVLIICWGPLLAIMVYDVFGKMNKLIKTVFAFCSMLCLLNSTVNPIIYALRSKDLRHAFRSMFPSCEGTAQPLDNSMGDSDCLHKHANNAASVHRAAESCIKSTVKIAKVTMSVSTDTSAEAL

SMILES	agonist property ([1]; agonist mode)	IC50 [2] [nM]	Hill Slope [2]	Maximum RE (%) [2]	EC50 [1]	Hill Slope ([1]; agonist mode)	Maximum RE (%) ([1]; agonist mode)	classification as partial agonist of the CB1 cannabinoid receptor [1]	pEC50 [3]	CB2 selectivity [4] [times]	other results
CCCc1cc(O)c2c(c1)OC(C)(C)[C@@H]1CC=C(C)C[C@@H]21 [∆8-THCV, tetrahydrocannabivarin]	failed to show any significant agonist property	120	1.37 (0.09)	97.40 (1.16) %	–	–	–	–	–	–	–
CCCCCc1cc(O)c2c(c1)OC(C)(C)[C@@H]1CC[C@H](C)C[C@@H]21 [9S-HHC, hexahydrocannabinol]	–	–	–	–	624 nM	0.95 (0.08)	20.58% and 20.58 (0.80) %	weak	7.24	1.7	–
CCCCCc1cc(O)c2c(c1)OC(C)(C)[C@@H]1CC[C@@H](C)C[C@@H]21 [9R-HHC, hexahydrocannabinol]	–	–	–	–	53.4 nM and 53.5 nM	0.56 (0.07)	41.51% and 41.51 (1.70) %	moderate	8.47	1.2	fold higher agonist potency than 9S-HHC [3]: approximately 16 fold
Cc1c(C(=O)NN2CCOCC2)nn(-c2ccc(Cl)cc2Cl)c1-c1ccc(I)cc1 [AM-281, reference compound]	–	–	0.81 (0.07)	101.90 (1.63) %	–	–	–	–	–	–	pIC50 ([2]; read-out: IC50): 7.75
CCCc1cc(O)c2c(c1)OC(C)(C)[C@@H]1CCC(C)=C[C@@H]21 [∆9-THCV, tetrahydrocannabivarin]	failed to show any significant agonist property	52.4	1.38 (0.18)	96.46 (2.20) %	–	–	–	–	–	–	Emax ([1]; CHO-K1, agonist mode, up to 5 µM, insignificant increase from baseline): 1.19%; fold less potent antagonist than AM-281 [2]: ~ 3 ×; fold less potent antagonist than rimonabant [2]: ~ 45 ×
CCCCCCC(C)(C)c1ccc([C@@H]2C[C@H](O)CC[C@H]2CCCO)c(O)c1 [CP 55940, reference compound]	–	–	–	–	–	0.90 (0.10)	105.50 (3.34) %	–	–	–	–
